Experimental data taken from patent US20020169175A1, “Pharmaceutically acceptable salts of heterocyclic compounds” (DR. REDDY'S LABORATORIES LTD., priority 2001, published 2002).
Counter-ions that a name gives are not always drawn.

Legend:
C57BL/KsJ-db/db mice = assay: Efficacy in genetic models: blood sugar lowering in db/db mice; assay type: in vivo, mouse; details: 0.1 mg/kg oral gavage daily for 6 days
Text: a) Efficacy in Genetic Models
Mutation in colonies of laboratory animals and different sensitivities to dietary regimens have made the development of animal models with non-insulin dependent diabetes and hyperlipidemia associated with obesity and insulin resistance possible. Genetic models such as db/db and ob/ob (Diabetes, (1982) 31(1): 1-6) mice and zucker fa/fa rats have been developed by the various laboratories for understanding the pathophysiology of disease and testing the efficacy of new antidiabetic compounds (Diabetes, (1983) 32: 830-838; Annu. Rep. Sankyo Res. Lab. (1994). 46: 1-57). […]
The random blood sugar and triglyceride levels were measured by collecting blood (100 μl) through orbital sinus, using heparinised capillary in tubes containing EDTA which was centrifuged to obtain plasma. The plasma glucose and triglyceride levels were measured spectrometrically, by glucose oxidase and glycerol-3-PO4 oxidase/peroxidase enzyme (Dr. Reddy's Lab. Diagnostic Division Kits, Hyderabad, India) methods respectively.
The blood sugar and triglycerides lowering activities of the test compound was calculated according to the formula.
(§1) 1. Percent reduction in Blood sugar/triglycerides/total cholesterol were calculated according to the formula: [formula]

Swiss albino mice = assay: Plasma triglyceride and total cholesterol lowering activity in Swiss albino mice and Guinea pigs; assay type: in vivo, mouse; details: dose 0.3 mg/kg, oral, 6 days
Experimental: c) Plasma Triglyceride and Total Cholesterol Lowering Activity in Swiss Albino Mice and Guinea Pigs
Male Swiss albino mice (SAM) and male Guinea pigs were obtained from NIN and housed in DRF animal house. All these animals were maintained under 12 hour light and dark cycle at 25±1° C. Animals were given standard laboratory chow (NIN Hyderabad, India) and water, ad libitum. SAM of 20-25 g body weight range and Guinea pigs of 500-700 g body weight range were used (Oliver, P., Plancke, M. O., Marzin, D., Clavey, V., Sauzieres, J and Fruchart, J. C. Effects of fenofibrate, gemfibrozil and nicotinic acid on plasma lipoprotein levels in normal and hyperlipidemic mice. Atherosclerosis. 1988. 70: 107-114).
The test compounds were administered orally to Swiss albino mice at 0.3 to 30 mg/kg/day dose for 6 days. Control mice were treated with vehicle (0.25% Carboxymethylcellulose; dose 10 ml/kg). The test compounds were administered orally to Guinea pigs at 0.3 to 30 mg/kg/day dose for 6 days. Control animals were treated with vehicle (0.25% Carboxymethylcellulose; dose 5 ml/kg).
The blood samples were collected in fed state 1 hour after drug administration on 0 and 6 day of treatment. The blood was collected from the retro-orbital sinus through heparinised capillary in EDTA containing tubes. After centrifugation, plasma sample was separated for triglyceride and total cholesterol (Wieland, O. Methods of Enzymatic analysis. Bergermeyer, H. O., Ed., 1963. 211-214; Trinder, P. Ann. Clin. Biochem. 1969. 6: 24-27). Measurement of plasma triglyceride, total cholesterol and HDL were done using commercial kits (Dr. Reddy's Diagnostic Division, Hyderabad, India).
as §1

hPPARα = target: T1, hPPARα (Homo sapiens, UniProt Q07869); assay: Determination of hPPARα activity (GAL4 fusion luciferase reporter in transfected HEK-293 cells); assay type: cell-based; details: compound concentration 50 μM
T1 construct: expressed in transfected cells; host or cells: HEK-293
T1 sequence (Q07869 239-466 limits assumed): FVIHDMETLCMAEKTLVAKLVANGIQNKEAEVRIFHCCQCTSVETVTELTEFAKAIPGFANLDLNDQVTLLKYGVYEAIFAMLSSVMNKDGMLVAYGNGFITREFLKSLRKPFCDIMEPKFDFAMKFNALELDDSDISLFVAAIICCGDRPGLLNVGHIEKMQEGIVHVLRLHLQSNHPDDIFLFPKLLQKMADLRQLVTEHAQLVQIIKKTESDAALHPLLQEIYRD
Experimental: a) Determination of hPPARα Activity
Ligand binding domain of hPPARα was fused to DNA binding domain of Yeast transcription factor GAL4 in eucaryotic expression vector. Using superfect (Qiagen, Germany) as transfecting reagent HEK-293 cells were transfected with this plasmid and a reporter plasmid harboring the luciferase gene driven by a GAL4 specific promoter. Compound was added at different concentrations after 42 hrs of transfection and incubated overnight. Luciferase activity as a function of compound binding/activation capacity of PPARα was measured using Packard Luclite kit (Packard, USA) in Top Count (Ivan Sadowski, Brendan Bell, Peter Broag and Melvyn Hollis. Gene. 1992. 118: 137-141; Superfect Transfection Reagent Handbook. February 1997. Qiagen, Germany).

hPPARγ1 = target: T2, hPPARγ1 (Homo sapiens, UniProt P37231); assay: Determination of hPPARγ activity (GAL4 fusion luciferase reporter in transfected HEK-293 cells); assay type: cell-based; details: compound concentration 1 μM
T2 construct: expressed in transfected cells; host or cells: HEK-293
T2 sequence (P37231 238-503 limits assumed): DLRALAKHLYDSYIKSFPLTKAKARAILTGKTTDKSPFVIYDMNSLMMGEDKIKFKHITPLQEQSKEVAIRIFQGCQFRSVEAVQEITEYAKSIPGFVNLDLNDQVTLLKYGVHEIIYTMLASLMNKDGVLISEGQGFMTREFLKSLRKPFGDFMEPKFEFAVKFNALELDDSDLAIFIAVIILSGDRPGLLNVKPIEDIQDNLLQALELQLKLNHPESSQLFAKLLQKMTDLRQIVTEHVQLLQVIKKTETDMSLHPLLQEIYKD
Experimental: b) Determination of hPPARγ Activity
Ligand binding domain of hPPARγ1 was fused to DNA binding domain of Yeast transcription factor GAL4 in eucaryotic expression vector. Using lipofectamine (Gibco BRL, USA) as transfecting reagent HEK-293 cells were transfected with this plasmid and a reporter plasmid harboring the luciferase gene driven by a GAL4 specific promoter. Compound was added at 1 μM concentration after 48 hrs of transfection and incubated overnight. Luciferase activity as a function of drug binding/activation capacity of PPARγ1 was measured using Packard Luclite kit (Packard, USA) in Packard Top Count (Ivan Sadowski, Brendan Bell, Peter Broag and Melvyn Hollis. Gene. 1992. 118: 137-141; Guide to Eukaryotic Transfections with Cationic Lipid Reagents. Life Technologies, GIBCO BRL, USA).

Question: How did the “Reduction in Blood Glucose Level (%)” value (C57BL/KsJ-db/db mice) turn out when `CCO[C@@H](Cc1ccc(OCCn2c(CC)nc3ccccc3c2=O)cc1)C(=O)O` [Example 11, (−)-3-[4-[2-(2-Ethyl-4-oxo-3,4-dihydroquinazolin-3-yl)ethoxy]phenyl]-2-ethoxypropanoic acid arginine salt] was run?
Answer: The value was 61%.

Question: What about the “Triglyceride Lowering (%)” value (Swiss albino mice) of the same molecule?
Answer: Its value is 58%.

Question: And the PPARα (hPPARα)?
Answer: Its PPARα is 13.8.

Question: And the PPARγ (hPPARγ1)?
Answer: The PPARγ was 27.0.
